# Results from ChEMBL document CHEMBL5537159, “Discovery and SAR of JTE-151: A Novel RORγ Inhibitor for Clinical Development” (J Med Chem, 2024).
# What was measured:
# [1] = Lipophilicity, logD of compound by RP-HPLC analysis; assay type: physicochemical
# [2] = Apparent permeability in human Caco-2 cells at 25 umol/L incubated for 2 hrs by LC/MS/MS analysis; assay type: ADME, cell-based; conditions: dose 25 µmol/L
# [3] = Total body clearance in C57BL/6J mouse at 1 mg/kg, iv administered as single dose and measured after 24 hrs; assay type: ADME, organism-based; conditions: in vivo
# [4] = AUCinfinity in C57BL/6J mouse at 3 mg/kg, po administered as single dose and measured after 24 hrs; assay type: ADME, organism-based; conditions: in vivo
# [5] = Oral bioavailability in C57BL/6J mouse at 3 mg/kg administered as single dose and measured after 24 hrs; assay type: ADME, organism-based; conditions: in vivo
# [6] = Elimination half life in Beagle dog at 1 mg/kg, iv administered as single dose and measured after 24 hrs; assay type: ADME, organism-based, Canis lupus familiaris; conditions: in vivo, read-out: beta t1/2 (converted)
# [7] = MRT in Beagle dog at 3 mg/kg, po administered as single dose and measured after 24 hrs; assay type: ADME, organism-based, Canis lupus familiaris; conditions: in vivo
# [8] = Total body clearance in cynomolgus monkey at 1 mg/kg, iv administered as single dose and measured after 24 hrs; assay type: ADME, organism-based, Macaca fascicularis; conditions: in vivo
# [9] = Selectivity ratio of antagonist activity at human RORbeta to inhibition of RORgamma (unknown origin)
# [10] = Selectivity ratio of antagonist activity at human SF1 to inhibition of RORgamma (unknown origin)
# [11] = Selectivity ratio of antagonist activity at human AR to inhibition of RORgamma (unknown origin)
# [12] = Selectivity ratio of antagonist activity at human ERalpha to inhibition of RORgamma (unknown origin)
# [13] = Selectivity ratio of antagonist activity at human PR to inhibition of RORgamma (unknown origin)
# [14] = Selectivity ratio of antagonist activity at human VDR to inhibition of RORgamma (unknown origin)
# [15] = Selectivity ratio of antagonist activity at human PPARgamma to inhibition of RORgamma (unknown origin)
# [16] = Selectivity ratio of antagonist activity at human RARalpha to inhibition of RORgamma (unknown origin)
# [17] = Selectivity ratio of antagonist activity at human RXRalpha to inhibition of RORgamma (unknown origin)
# [18] = Selectivity ratio of agonist activity at human ERalpha to inhibition of RORgamma (unknown origin)
# [19] = Selectivity ratio of agonist activity at human PPARdelta to inhibition of RORgamma (unknown origin)
# [20] = Selectivity ratio of agonist activity at human RARalpha to inhibition of RORgamma (unknown origin)
# [21] = target: Beta-1 adrenergic receptor (Homo sapiens, UniProt P08588); assay: Inhibition of human adrenergic beta1 receptor
# [22] = target: Beta-2 adrenergic receptor (Homo sapiens, UniProt P07550); assay: Inhibition of human adrenergic beta2 receptor
# [23] = target: Voltage-gated L-type calcium channel (Rattus norvegicus, UniProt P22002+Q02485+P27732); assay: Inhibition of rat L-type Ca2+ channel; assay type: protein assay
# Cannabinoid receptor 1 = Cannabinoid receptor 1 (Homo sapiens, UniProt P21554); assay: Inhibition of human CB1 receptor
# [24] = Inhibition of rat glutamate receptor
# Histamine H2 receptor = Histamine H2 receptor (Homo sapiens, UniProt P25021); assay: Inhibition of human histamine H2 receptor
# [25] = target: Prostaglandin G/H synthase 1 (Ovis aries, UniProt P05979); assay: Inhibition of ovine cox-1
# [26] = target: Amine oxidase [flavin-containing] B (Homo sapiens, UniProt P27338); assay: Inhibition of human MAO-B
# Cytochrome P450 2A6 = Cytochrome P450 2A6 (Homo sapiens, UniProt P11509); assay: Inhibition of CYP2A6 in human liver microsomes; assay type: ADME, Microsome
# Cytochrome P450 3A4 = Cytochrome P450 3A4 (Homo sapiens, UniProt P08684); assay: Inhibition of CYP3A4 in human liver microsomes using midazolam as substrate; assay type: ADME, Microsome
# [27] = target: Voltage-gated inwardly rectifying potassium channel KCNH2 (Homo sapiens, UniProt Q12809); assay: Inhibition of hERG transfected in HEK293 cells by whole cell patch-clamp method; assay type: toxicity, cell-based
# [28] = Cardiotoxicity in Beagle dog assessed as QTcF prolongation upto 100 mg/kg, po bid measured for 24 hrs; assay type: toxicity, organism-based, Canis lupus familiaris; conditions: in vivo
# [29] = Genotoxicity in Salmonella typhimurium TA98 at 47 to 1500 ug in presence of S9 fraction by bacterial reverse mutation test; assay type: toxicity, subcellular, Salmonella enterica subsp. enterica serovar Typhimurium; conditions: dose 47-1500 µg
# [30] = Toxicity in CHL cells assessed as chromosomal aberration at 120 to 140 ug/ml incubated for 6 hrs in presence of S9 fraction; assay type: subcellular, Cricetulus griseus; conditions: chinese hamster, s9, 6 h, dose 120-140 µg/ml
# [31] = Toxicity in CHL cells assessed as chromosomal aberration at 60 to 80 ug/ml incubated for 6 hrs in absence of S9 fraction; assay type: cell-based, Cricetulus griseus; conditions: chinese hamster, dose 60-80 µg/ml
# [32] = Cmax in human at 200 […], po administered as single dose and measured upto 144 hrs; assay type: ADME, organism-based; conditions: in vivo
# [33] = Cmax in human at 400 […], po administered as single dose and measured upto 144 hrs; assay type: ADME, organism-based; conditions: in vivo
# [34] = Tmax in human at 60 […], po administered as single dose and measured upto 144 hrs; assay type: ADME, organism-based; conditions: in vivo
# [35] = Tmax in human at 100 […], po administered as single dose and measured upto 144 hrs; assay type: ADME, organism-based; conditions: in vivo
# [36] = Tmax in human at 200 […], po administered as single dose and measured upto 144 hrs; assay type: ADME, organism-based; conditions: in vivo
# [37] = AUClast in human at 30 mg/kg, po administered as single dose and measured upto 144 hrs; assay type: ADME, organism-based; conditions: in vivo
# [38] = AUClast in human at 60 mg/kg, po administered as single dose and measured upto 144 hrs; assay type: ADME, organism-based; conditions: in vivo
# [39] = AUClast in human at 100 […], po administered as single dose and measured upto 144 hrs; assay type: ADME, organism-based; conditions: in vivo
# [40] = AUClast in human at 1000 mg/kg, po administered as single dose and measured upto 144 hrs; assay type: ADME, organism-based; conditions: in vivo
# [41] = AUClast in human at 1600 mg/kg, po administered as single dose and measured upto 144 hrs; assay type: ADME, organism-based; conditions: in vivo
# [42] = Elimination half life in human at 200 mg/kg, po administered as single dose and measured upto 144 hrs; assay type: ADME, organism-based; conditions: in vivo, read-out: beta t1/2 (converted)
# [43] = Elimination half life in human at 1000 mg/kg, po administered as single dose and measured upto 144 hrs; assay type: ADME, organism-based; conditions: in vivo, read-out: beta t1/2 (converted)
# [44] = Toxicity in Beagle dog assessed as development-limiting toxicity at 30 to 100 mg/kg, po administered once daily and measured on day 1,14 and 28; assay type: organism-based, Canis lupus familiaris; conditions: in vivo, 672 h, dose 30-100 mg/kg, time 28 day
# [45] = Toxicity in Beagle dog assessed as development-limiting toxicity at 100 mg/kg, po bid administered 2 doses at 4 hrs interval and measured on day 1,14 and 28; assay type: organism-based, Canis lupus familiaris; conditions: in vivo, 672 h, time 28 day
# Voltage-gated inwardly rectifying potassium channel KCNH2, sequence (Q12809 whole entry): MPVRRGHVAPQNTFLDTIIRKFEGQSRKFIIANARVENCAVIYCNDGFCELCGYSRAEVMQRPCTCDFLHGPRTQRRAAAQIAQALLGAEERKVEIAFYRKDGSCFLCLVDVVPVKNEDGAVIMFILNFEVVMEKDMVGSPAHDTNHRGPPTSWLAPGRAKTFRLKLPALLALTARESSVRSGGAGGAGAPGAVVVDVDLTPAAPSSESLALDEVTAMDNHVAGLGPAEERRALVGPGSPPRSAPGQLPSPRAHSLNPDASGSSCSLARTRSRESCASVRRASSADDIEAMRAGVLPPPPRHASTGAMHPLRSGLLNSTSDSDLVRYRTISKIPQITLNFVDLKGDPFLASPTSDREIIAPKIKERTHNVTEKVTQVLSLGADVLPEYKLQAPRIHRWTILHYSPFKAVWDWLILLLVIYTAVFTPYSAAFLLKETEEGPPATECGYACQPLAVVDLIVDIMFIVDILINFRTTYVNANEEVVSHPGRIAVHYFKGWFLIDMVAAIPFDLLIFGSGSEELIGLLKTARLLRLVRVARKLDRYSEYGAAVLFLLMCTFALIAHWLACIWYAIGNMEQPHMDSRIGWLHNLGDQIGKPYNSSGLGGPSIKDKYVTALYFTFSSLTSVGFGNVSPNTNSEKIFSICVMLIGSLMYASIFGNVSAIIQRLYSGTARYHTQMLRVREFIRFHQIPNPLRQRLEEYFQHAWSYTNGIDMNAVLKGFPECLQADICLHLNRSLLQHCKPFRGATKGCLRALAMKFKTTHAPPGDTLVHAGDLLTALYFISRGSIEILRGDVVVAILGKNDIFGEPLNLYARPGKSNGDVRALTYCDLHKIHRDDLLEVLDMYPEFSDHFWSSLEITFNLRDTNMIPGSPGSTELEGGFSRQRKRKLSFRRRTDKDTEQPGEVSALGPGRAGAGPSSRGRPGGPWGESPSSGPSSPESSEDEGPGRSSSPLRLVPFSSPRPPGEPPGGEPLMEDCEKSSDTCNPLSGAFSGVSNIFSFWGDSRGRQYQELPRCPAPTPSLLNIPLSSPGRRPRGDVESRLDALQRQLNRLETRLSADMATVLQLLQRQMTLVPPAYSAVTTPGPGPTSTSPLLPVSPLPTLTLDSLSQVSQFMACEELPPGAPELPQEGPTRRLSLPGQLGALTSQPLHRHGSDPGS
# Histamine H2 receptor, sequence (P25021 whole entry): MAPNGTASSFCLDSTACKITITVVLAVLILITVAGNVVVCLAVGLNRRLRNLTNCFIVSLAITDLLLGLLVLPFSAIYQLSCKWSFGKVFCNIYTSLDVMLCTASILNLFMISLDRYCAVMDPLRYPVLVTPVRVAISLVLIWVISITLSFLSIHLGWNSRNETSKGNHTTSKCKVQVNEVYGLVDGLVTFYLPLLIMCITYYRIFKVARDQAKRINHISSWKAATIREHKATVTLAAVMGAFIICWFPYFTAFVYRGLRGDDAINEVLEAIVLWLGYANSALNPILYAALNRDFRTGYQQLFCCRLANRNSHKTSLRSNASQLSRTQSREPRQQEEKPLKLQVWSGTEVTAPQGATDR
# Beta-2 adrenergic receptor, sequence (P07550 whole entry): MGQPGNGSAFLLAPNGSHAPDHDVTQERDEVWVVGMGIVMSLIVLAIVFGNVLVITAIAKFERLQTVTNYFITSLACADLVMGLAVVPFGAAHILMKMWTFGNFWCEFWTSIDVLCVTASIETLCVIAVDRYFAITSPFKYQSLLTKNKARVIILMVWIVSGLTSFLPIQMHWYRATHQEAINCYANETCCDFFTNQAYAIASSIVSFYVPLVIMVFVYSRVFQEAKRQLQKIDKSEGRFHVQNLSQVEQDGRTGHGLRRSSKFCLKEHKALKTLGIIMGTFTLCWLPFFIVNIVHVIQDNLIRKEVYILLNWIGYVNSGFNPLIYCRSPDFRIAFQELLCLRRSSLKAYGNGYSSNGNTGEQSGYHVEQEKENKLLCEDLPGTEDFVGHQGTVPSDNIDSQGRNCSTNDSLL
# Beta-1 adrenergic receptor, sequence (P08588 whole entry): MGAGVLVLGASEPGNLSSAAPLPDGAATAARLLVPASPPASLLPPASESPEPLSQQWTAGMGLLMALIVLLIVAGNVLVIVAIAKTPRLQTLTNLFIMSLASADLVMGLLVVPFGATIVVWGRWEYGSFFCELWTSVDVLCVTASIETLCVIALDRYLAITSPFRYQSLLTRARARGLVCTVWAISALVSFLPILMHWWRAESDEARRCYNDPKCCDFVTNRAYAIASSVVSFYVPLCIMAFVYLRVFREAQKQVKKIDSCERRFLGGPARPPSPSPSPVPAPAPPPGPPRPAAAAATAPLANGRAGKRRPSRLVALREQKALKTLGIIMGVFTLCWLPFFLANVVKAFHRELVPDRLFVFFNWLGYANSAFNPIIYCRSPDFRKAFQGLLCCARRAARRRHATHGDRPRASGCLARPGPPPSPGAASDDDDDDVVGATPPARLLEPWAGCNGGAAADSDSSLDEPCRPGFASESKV
# Amine oxidase [flavin-containing] B, sequence (P27338 whole entry): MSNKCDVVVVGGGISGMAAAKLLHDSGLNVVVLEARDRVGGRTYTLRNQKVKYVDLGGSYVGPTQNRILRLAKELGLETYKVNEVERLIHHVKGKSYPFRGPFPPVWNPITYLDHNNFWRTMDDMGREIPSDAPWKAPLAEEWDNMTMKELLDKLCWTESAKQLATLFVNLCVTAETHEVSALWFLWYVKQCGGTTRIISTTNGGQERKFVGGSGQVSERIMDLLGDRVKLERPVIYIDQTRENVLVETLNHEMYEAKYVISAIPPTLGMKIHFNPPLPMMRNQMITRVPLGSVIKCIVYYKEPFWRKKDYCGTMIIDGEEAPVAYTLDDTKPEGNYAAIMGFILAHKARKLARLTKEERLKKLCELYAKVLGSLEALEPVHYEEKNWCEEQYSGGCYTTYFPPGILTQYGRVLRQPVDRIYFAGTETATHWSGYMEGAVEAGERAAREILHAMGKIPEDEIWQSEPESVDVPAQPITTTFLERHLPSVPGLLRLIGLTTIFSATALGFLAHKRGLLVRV
# Cytochrome P450 2A6, sequence (P11509 whole entry): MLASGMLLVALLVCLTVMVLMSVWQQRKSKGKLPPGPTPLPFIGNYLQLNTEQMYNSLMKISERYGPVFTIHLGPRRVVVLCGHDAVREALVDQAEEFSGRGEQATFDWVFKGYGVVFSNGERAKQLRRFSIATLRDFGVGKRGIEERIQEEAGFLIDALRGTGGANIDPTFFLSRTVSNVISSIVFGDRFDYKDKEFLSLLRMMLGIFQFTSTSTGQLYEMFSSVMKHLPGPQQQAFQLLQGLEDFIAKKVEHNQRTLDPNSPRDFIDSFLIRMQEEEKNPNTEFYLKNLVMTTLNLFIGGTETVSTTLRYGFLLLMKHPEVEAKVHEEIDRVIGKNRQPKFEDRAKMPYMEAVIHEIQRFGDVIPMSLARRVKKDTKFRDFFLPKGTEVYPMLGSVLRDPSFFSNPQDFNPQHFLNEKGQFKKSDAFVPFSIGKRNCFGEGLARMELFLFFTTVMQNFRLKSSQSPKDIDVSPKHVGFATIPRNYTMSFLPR
# Cytochrome P450 3A4, sequence (P08684 whole entry): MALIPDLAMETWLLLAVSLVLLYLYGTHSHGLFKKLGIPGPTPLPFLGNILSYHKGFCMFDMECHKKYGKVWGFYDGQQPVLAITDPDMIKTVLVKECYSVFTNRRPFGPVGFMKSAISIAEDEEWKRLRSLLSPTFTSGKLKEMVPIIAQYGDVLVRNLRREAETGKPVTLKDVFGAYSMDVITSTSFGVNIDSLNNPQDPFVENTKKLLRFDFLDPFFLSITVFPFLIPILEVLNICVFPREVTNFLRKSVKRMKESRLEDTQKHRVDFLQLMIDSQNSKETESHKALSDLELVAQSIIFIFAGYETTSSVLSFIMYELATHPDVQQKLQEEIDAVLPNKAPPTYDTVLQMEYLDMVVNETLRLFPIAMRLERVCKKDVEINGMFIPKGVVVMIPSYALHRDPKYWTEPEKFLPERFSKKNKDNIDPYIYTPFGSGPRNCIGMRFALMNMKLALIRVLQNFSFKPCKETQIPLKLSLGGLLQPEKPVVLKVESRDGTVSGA
# Prostaglandin G/H synthase 1, sequence (P05979 whole entry): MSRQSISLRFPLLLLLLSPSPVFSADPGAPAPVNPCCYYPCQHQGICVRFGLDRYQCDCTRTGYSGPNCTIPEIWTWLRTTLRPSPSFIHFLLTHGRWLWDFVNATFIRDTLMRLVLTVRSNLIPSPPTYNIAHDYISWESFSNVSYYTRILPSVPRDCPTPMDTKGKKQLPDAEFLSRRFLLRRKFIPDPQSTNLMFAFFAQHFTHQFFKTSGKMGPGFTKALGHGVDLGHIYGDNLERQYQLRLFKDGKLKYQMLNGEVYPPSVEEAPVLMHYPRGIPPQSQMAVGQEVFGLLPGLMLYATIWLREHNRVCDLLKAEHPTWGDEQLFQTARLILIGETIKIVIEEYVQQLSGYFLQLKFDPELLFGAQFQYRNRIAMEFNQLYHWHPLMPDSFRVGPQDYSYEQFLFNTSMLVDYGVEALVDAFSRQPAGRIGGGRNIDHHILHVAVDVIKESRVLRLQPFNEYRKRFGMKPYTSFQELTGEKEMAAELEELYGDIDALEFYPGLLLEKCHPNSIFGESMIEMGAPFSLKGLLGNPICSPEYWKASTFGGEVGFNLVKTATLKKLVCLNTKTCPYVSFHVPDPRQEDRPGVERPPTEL
# Cannabinoid receptor 1, sequence (P21554 whole entry): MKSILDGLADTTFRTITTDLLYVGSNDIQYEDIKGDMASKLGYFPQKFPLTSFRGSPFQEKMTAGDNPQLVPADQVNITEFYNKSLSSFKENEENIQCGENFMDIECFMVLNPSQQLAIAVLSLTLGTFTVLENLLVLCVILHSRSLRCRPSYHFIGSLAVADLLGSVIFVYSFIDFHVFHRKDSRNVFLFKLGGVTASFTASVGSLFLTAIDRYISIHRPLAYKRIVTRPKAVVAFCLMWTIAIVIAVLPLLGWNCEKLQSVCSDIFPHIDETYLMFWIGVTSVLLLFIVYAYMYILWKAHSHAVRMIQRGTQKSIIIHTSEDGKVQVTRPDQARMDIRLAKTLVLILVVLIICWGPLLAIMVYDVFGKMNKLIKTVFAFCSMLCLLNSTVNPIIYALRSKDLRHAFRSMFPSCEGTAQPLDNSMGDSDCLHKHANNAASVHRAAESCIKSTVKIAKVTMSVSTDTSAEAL
smiles,measurement,setting,value
Cc1ccc(NC(=O)C[C@H](CCC(=O)O)c2noc([C@H]3C[C@@H](CC(C)(C)C)C3)c2C2CC2)c(Cl)c1,logD,[1],5.1
same,"Papp at 2 h, 25 µM",[2],22.3 ×10⁻⁶ cm/s
same,clearance,[3],0.5 mL/min/kg
same,AUC(0-inf),[4],173 µM·h
same,bioavailability,[5],98%
same,half-life,[6],5.5 h
same,MRT,[7],6.6 h
same,clearance,[8],3.17 mL/min/kg
same,Selectivity ratio,[9],> 100
same,Selectivity ratio,[10],> 100
same,Selectivity ratio,[11],> 100
same,Selectivity ratio,[12],> 100
same,Selectivity ratio,[13],> 100
same,Selectivity ratio,[14],> 100
same,Selectivity ratio,[15],> 100
same,Selectivity ratio,[16],> 100
same,Selectivity ratio,[17],> 100
same,Selectivity ratio,[18],> 100
same,Selectivity ratio,[19],> 100
same,Selectivity ratio,[20],> 100
same,IC50,[21],> 10 µM
same,IC50,[22],> 10 µM
same,IC50,[23],> 10 µM
same,IC50,Cannabinoid receptor 1,> 10 µM
same,IC50,[24],> 10 µM
same,IC50,Histamine H2 receptor,> 10 µM
same,IC50,[25],> 10 µM
same,IC50,[26],> 10 µM
same,IC50,Cytochrome P450 2A6,> 10 µM
same,IC50,Cytochrome P450 3A4,> 10 µM
same,IC50,[27],7.4 µM
same,Activity,[28],Non-Toxic
same,Activity,[29],Non-Toxic
same,Activity,[30],Non-Toxic
same,Activity,[31],Non-Toxic
same,Cmax,[32],8790 ng/mL
same,Cmax,[33],17500 ng/mL
same,Tmax,[34],4 h
same,Tmax,[35],3.03 h
same,Tmax,[36],3.25 h
same,AUC(0-t) at 144 h,[37],6030 ng·h/mL
same,AUC(0-t) at 144 h,[38],11000 ng·h/mL
same,AUC(0-t) at 144 h,[39],21200 ng·h/mL
same,AUC(0-t) at 144 h,[40],241000 ng·h/mL
same,AUC(0-t) at 144 h,[41],371000 ng·h/mL
same,half-life,[42],12.4 h
same,half-life,[43],7.91 h
same,Activity,[44],Non-Toxic
same,Activity,[45],Non-Toxic
